US5183821A, “Method for treating leukemias using N-(2-dimethylaminoethyl)-3-amino-1,8-naphthalimide for treating leukemias and solid tumors” (priority 1991, dated 1993)
“Also recorded” adds a separate entry of the source.

Tests used:
M5076 ovarian carcinoma = experiment: NCI screen, M5076 ovarian carcinoma, intraperitoneal (summary); format: in vivo, Mouse; conditions: for Antitumor activity in words: M5076
Excerpt: (§1) The activity of the compound has been evaluated by experiments carried out under the auspices of the Division of Cancer Treatment, National Cancer Institute, employing techniques considered to be reliable indicators of chemotherapeutic utility in the treatment of forms of cancer in human patients. The details of the methodology employed in the reported experiments may be determined with reference to established NCI screening methods. In the experiments conducted by the NCI, evaluation of activity is made on the basis of appropriate parameters, such as median survival time (MST) or change in average tumor diameter (CATD)in ocular micrometer units (OMU).

Colon 38 = experiment: Experiment 15: Colon 38 s.c., saline with Tween-80, female; format: in vivo, Mouse B6 D2 F1 (BDF1)
Excerpt: Host: Mouse B6 D2 F1 (BDF1)
Inoculum Site: Subcutaneous
Vehicle: Saline with Tween-80
Treatment schedule (relative to tumor inoculation day): Days 2 and 9
Day of evaluation (relative to tumor inoculation day): 20
Parameter: Median tumor weight (MTW) estimated from tumor diameter
NCI minimal activity criteria: Percent T/C≤42
Percent T/C: Ratio of test (T) evaluation to control (C) evaluation expressed as a percentage

Lewis lung carcinoma = experiment: NCI screen, Lewis lung carcinoma, intravenous (summary); format: in vivo, Mouse; conditions: for Antitumor activity in words: Lewis lung carcinoma
Excerpt: as §1

[1] = 16.00 mg/kg i.p., control MTW outside normal limits
[2] = 32.00 mg/kg i.p., control MTW outside normal limits
[3] = 64.00 mg/kg i.p., control MTW outside normal limits

CN(C)CCN1C(=O)c2cccc3cc(N)cc(c23)C1=O [Example 9, 1H-Benz[de]isoquinoline-1,3(2H)-dione, 5-amino-2-[2-(dimethylamino)ethyl]]
Antitumor activity in words (M5076 ovarian carcinoma; listed as BIDA): Activity was seen
Antitumor activity in words (M5076 ovarian carcinoma; listed as the compound): activity substantially greater than the level considered to be of minimal interest; also recorded: exceeded the minimal level of activity for clinical interest
Table II evaluation (M5076 ovarian carcinoma; mean survival time, 15 tests, full wrapped cell: Activity Substantially greater than the minimal): Activity
Median tumor weight (MTW) (Colon 38; [1]): 2261
Percent T/C (Colon 38; [1]): 108%
Median tumor weight (MTW) (Colon 38; [2]): 1440
Percent T/C (Colon 38; [2]): 69%
Median tumor weight (MTW) (Colon 38; [3]): 368
Percent T/C (Colon 38; [3]): 17%
Median tumor weight (MTW) (Colon 38; 128.00 mg/kg i.p.): Deaths before evaluation
Antitumor activity in words (Lewis lung carcinoma; listed as BIDA): not active
Antitumor activity in words (Lewis lung carcinoma; listed as the compound): not observed to be effective
Table II evaluation (Lewis lung carcinoma; median survival time, 12 tests, full wrapped cell: Activity not confirmed): Activity not
